Data reported in patent US20180153995A1, “USE OF ANTIMICROBIAL POLYMERS FOR RE-SENSITIZATION OF MICROORGANISMS UPON EMERGENCE OF RESISTANCE TO ANTI-MICROBIAL AGENTS” (Technion Research & Development Foundation Limited, priority 2008, published 2018).
Like-named read-outs stand apart in the source and are kept apart here.

Experiments:
[1] = tested on: E. coli K-12 efflux knockout mutant; format: cell-based, Escherichia coli; conditions: E. coli AG100A (efflux−)
Procedure, shortened: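 Broth microdilution, inocula 10^5 bacteria/ml, 24 h at 37 °C. Growth read as OD620 against calibration standards.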

E. coli 16327 = experiment: microbe, parasite or virus in culture
E. coli 14384 = experiment: Antibiotic MIC by microdilution with or without sub-MIC polymer; format: cell-based, Escherichia coli
Procedure, shortened: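 Broth microdilution, inoculum 10^5 bacteria/ml, 2-fold serial dilutions of polymer alone, or of antibiotic combined with […]. Growth inhibition read as OD620 after 24 h at 37° C, calibrated against standards.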

E. coli 16329 = format: cell-based, Escherichia coli
Procedure, shortened: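 Bacterial suspensions (100 μl) were added to 100 μl of culture medium carrying 2-fold serially diluted antibiotic together with a fraction of the polymer's MIC, or to plain medium as control. Plates were incubated 24 hours at 37° C, and proliferation was read at 620 nm against calibration standards. Starting inoculum was 10^5 bacteria per ml.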

MRSA 15903 = experiment: microbe, parasite or virus in culture; format: cell-based, Staphylococcus aureus
Procedure, shortened: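 Two-agent combinations tested against MRSA 15903; FIC index = A/MICA + B/MICB, using MICs in combination versus alone. Below 0.5 read as clear re-sensitizing, 0.5–4 marginal or null, above 4 antagonism.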

S. maltophila 748 = experiment: Antibiotic MIC by microdilution with or without sub-MIC polymer; format: cell-based, Stenotrophomonas maltophila
S. aureus 15819 = experiment: as above; format: cell-based, Staphylococcus aureus; conditions: S. aureus 15819
S. aureus 43300 = experiment: as above; format: cell-based, Staphylococcus aureus
S. aureus 15877 = experiment: as above; format: cell-based, Staphylococcus aureus
[2] = tested on: E. coli K-12 resistant wild type; format: cell-based, Escherichia coli; conditions: E. coli AG100 (w.t.)
[3] = polymer at ¼ of its MIC (Table 16)
[4] = polymer at ½ of its MIC (Table 16)
[5] = polymer at ⅓ of its MIC (Table 16)
[6] = the OAK at ¼ of its MIC (Table 17)
[7] = the OAK at ½ of its MIC (Table 17)
[8] = the OAK at ⅓ of its MIC (Table 17)
[9] = +¼ MIC (1.6 μM) C12K(KNC12K)3NH2
[10] = +½ MIC (3.12 μM) C12K(KNC12K)3NH2
[11] = +⅓ MIC (2.1 μM) C12K(KNC12K)3NH2
[12] = +¼ MIC (1.6 μM) C12(5-ene)KKNC12KNH2
[13] = +½ MIC (3.12 μM) C12(5-ene)KKNC12KNH2
[14] = +⅓ MIC (2.1 μM) C12(5-ene)KKNC12KNH2

CC1(C)S[C@@H]2[C@H](NC(=O)Cc3ccccc3)C(=O)N2[C@H]1C(=O)O [Penicillin G, penicillin G]
128 to 256 mg/L: Antibiotic MIC in presence of C12K(NC8K)7NH2 (SEQ ID NO: 4), +½ MIC (E. coli 16329; E. coli U-16329, polymer at ½ of its MIC) | Antibiotic MIC in presence of C12K(NC8K)7NH2 (SEQ ID NO: 4), +⅓ MIC (E. coli 16329; E. coli U-16329, polymer at ⅓ of its MIC)
32 mg/L: MIC (MRSA 15903; S. aureus CI-15903, +polymer (¼ MIC) C12(5-ene)KKNC12KNH2) | Antibiotic MIC, None ([2]; antibiotic alone (Table 16)) | Antibiotic MIC, None ([2]; antibiotic alone (Table 17))
2 mg/L: MIC (MRSA 15903; MRSA 15903, +⅓ polymer MIC (2.1 μM) NC12(KNC12K)2NH2) | Antibiotic MIC (S. aureus 15819; +½ MIC (3.12 μM) C12KKNC12KNH2) | Antibiotic MIC (S. aureus 15819; [11]) | Antibiotic MIC (S. aureus 43300; +¼ MIC (1.6 μM) C16(9-ene)KKNC12KNH2)
8 to 16 mg/L: Antibiotic MIC in presence of C12K(NC8K)7NH2 (SEQ ID NO: 4), +⅓ MIC [2, 5]
512 mg/L: MIC, ½ + MIC OAK (E. coli 16327; E. coli U16327, with C12K(KNC10K)3NH2 (SEQ ID NO: 10) at ½ of its MIC) | Antibiotic MIC in presence of C12K(NC8K)7NH2 (SEQ ID NO: 4), +½ MIC (E. coli 16327; E. coli U-16327, polymer at ½ of its MIC) | Antibiotic MIC (E. coli 14384) | Antibiotic MIC (E. coli 14384; E. coli 14384, no polymer (None), Table 9) | Antibiotic MIC (E. coli 16329; E. coli 16329, no polymer (None), Table 10) | Antibiotic MIC (S. maltophila 748; [9]) | Antibiotic MIC (S. maltophila 748; no polymer (None), Table 13)
16 to 32 mg/L: Antibiotic MIC in presence of C12K(NC8K)7NH2 (SEQ ID NO: 4), +¼ MIC [2, 3]
1 mg/L: MIC (MRSA 15903; MRSA 15903, +½ polymer MIC (3.1 μM) NC12(KNC12K)2NH2) | Antibiotic MIC (S. aureus 43300; [12]) | Antibiotic MIC (S. aureus 43300; +½ MIC (3.12 μM) C12KKNC12KNH2)
0.5 mg/L: Antibiotic MIC (S. aureus 15819; [10])
16 mg/L: Antibiotic MIC (S. aureus 15819; no polymer (None), Table 8) | Antibiotic MIC (S. aureus 15819; no polymer (None), Table 11) | Antibiotic MIC (S. aureus 15819; no polymer (None), Table 13) | Antibiotic MIC in presence of the OAK, +¼ MIC [2, 6] | Antibiotic MIC in presence of the OAK, +⅓ MIC [2, 8]
8 mg/L: Antibiotic MIC, None ([1]; antibiotic alone (Table 16)) | Antibiotic MIC, None ([1]; antibiotic alone (Table 17)) | Antibiotic MIC in presence of C12K(NC8K)7NH2 (SEQ ID NO: 4), +¼ MIC [1, 3] | Antibiotic MIC in presence of C12K(NC8K)7NH2 (SEQ ID NO: 4), +⅓ MIC [1, 5] | MIC (MRSA 15903; MRSA 15903, +¼ polymer MIC (1.6 μM) NC12(KNC12K)2NH2) | Antibiotic MIC (S. aureus 15819; +¼ MIC (1.6 μM) C12KKNC12KNH2) | Antibiotic MIC (S. aureus 15819; [14]) | Antibiotic MIC (S. aureus 43300; +¼ MIC (1.6 μM) C12K(KNC12K)2NH2) | Antibiotic MIC (S. aureus 43300; +⅓ MIC (2.1 μM) C12K(KNC12K)2NH2) | Antibiotic MIC (S. aureus 15877; [12]) | Antibiotic MIC (S. aureus 15877; [13]) | Antibiotic MIC (S. aureus 15877; [14]) | Antibiotic MIC (S. aureus 15877; no polymer (None), Table 8) | Antibiotic MIC in presence of C12K(NC8K)7NH2 (SEQ ID NO: 4), +½ MIC [2, 4] | Antibiotic MIC in presence of the OAK, +½ MIC [2, 7]
1 to 2 mg/L: Antibiotic MIC (S. aureus 43300; +⅓ MIC (2.1 μM) C16(9-ene)KKNC12KNH2)
8 to 12 mg/L: Antibiotic MIC (S. aureus 15819; [12])
0.25 mg/L: MIC (MRSA 15903; S. aureus CI-15903, +polymer (½ MIC) C12(5-ene)KKNC12KNH2) | Antibiotic MIC (S. aureus 43300; +½ MIC (3.12 μM) C16(9-ene)KKNC12KNH2) | Antibiotic MIC (S. aureus 43300; [14])
256 mg/L: Antibiotic MIC (E. coli 16329) | Antibiotic MIC (E. coli 16329; E. coli U-16329, +¼ MIC C12K(NC8K)5NH2) | Antibiotic MIC (E. coli 16329; E. coli U-16329, +½ MIC C12K(NC8K)5NH2) | Antibiotic MIC (E. coli 16329; E. coli U-16329, +⅓ MIC C12K(NC8K)5NH2) | Antibiotic MIC, None (E. coli 16329; E. coli U-16329, antibiotic alone (Table 15)) | Antibiotic MIC (E. coli 16329; E. coli U-16329, no polymer (None), Table 14) | Antibiotic MIC in presence of C12K(NC8K)7NH2 (SEQ ID NO: 4), +¼ MIC (E. coli 16329; E. coli U-16329, polymer at ¼ of its MIC)
2 to 4 mg/L: Antibiotic MIC (S. aureus 43300; +⅓ MIC (2.1 μM) C12KKNC12KNH2)
4 to 16 mg/L: MIC, ½ + MIC OAK (MRSA 15903; MRSA 15903, with C12K(KNC10K)3NH2 (SEQ ID NO: 10) at ½ of its MIC)
4 to 8 mg/L: Antibiotic MIC in presence of the OAK, +¼ MIC [1, 6] | Antibiotic MIC in presence of the OAK, +⅓ MIC [1, 8]
128 mg/L: Antibiotic MIC (S. maltophila 748; [10])
>512 mg/L: Antibiotic MIC (E. coli 16327) | Antibiotic MIC (E. coli 16327; E. coli 16327, +¼ MIC (1.6 μM) C12K(KNC12K)2NH2) | Antibiotic MIC (E. coli 16327; E. coli 16327, +½ MIC (3.12 μM) C12K(KNC12K)2NH2) | Antibiotic MIC (E. coli 16327; E. coli 16327, +⅓ MIC (2.1 μM) C12K(KNC12K)2NH2) | Antibiotic MIC (E. coli 16327; E. coli 16327, no polymer (None), Table 9) | Antibiotic MIC (E. coli 16327; E. coli 16327, no polymer (None), Table 10) | Antibiotic MIC (E. coli 16327; E. coli 16327, no polymer (None), Table 12) | MIC, Alone (E. coli 16327; E. coli U16327, antibiotic alone (Table 22)) | MIC, ¼ + MIC OAK (E. coli 16327; E. coli U16327, with C12K(KNC10K)3NH2 (SEQ ID NO: 10) at ¼ of its MIC) | MIC, ⅓ + MIC OAK (E. coli 16327; E. coli U16327, with C12K(KNC10K)3NH2 (SEQ ID NO: 10) at ⅓ of its MIC) | Antibiotic MIC, None (E. coli 16327; E. coli U-16327, antibiotic alone (Table 15)) | Antibiotic MIC in presence of C12K(NC8K)7NH2 (SEQ ID NO: 4), +¼ MIC (E. coli 16327; E. coli U-16327, polymer at ¼ of its MIC) | Antibiotic MIC in presence of C12K(NC8K)7NH2 (SEQ ID NO: 4), +⅓ MIC (E. coli 16327; E. coli U-16327, polymer at ⅓ of its MIC) | Antibiotic MIC (E. coli 14384; E. coli 14384, +½ MIC C12K(NC8K)5NH2) | Antibiotic MIC, None (E. coli 14384; E. coli 14384, antibiotic alone (Table 15)) | Antibiotic MIC (E. coli 14384; E. coli 14384, no polymer (None), Table 14) | Antibiotic MIC in presence of C12K(NC8K)7NH2 (SEQ ID NO: 4), +¼ MIC (E. coli 14384; E. coli 14384, polymer at ¼ of its MIC) | Antibiotic MIC in presence of C12K(NC8K)7NH2 (SEQ ID NO: 4), +½ MIC (E. coli 14384; E. coli 14384, polymer at ½ of its MIC) | Antibiotic MIC in presence of C12K(NC8K)7NH2 (SEQ ID NO: 4), +⅓ MIC (E. coli 14384; E. coli 14384, polymer at ⅓ of its MIC)
64 mg/L: MIC (MRSA 15903; MRSA 15903, antibiotic alone) | MIC, Alone (MRSA 15903; MRSA 15903, antibiotic alone (Table 22)) | MIC, ¼ + MIC OAK (MRSA 15903; MRSA 15903, with C12K(KNC10K)3NH2 (SEQ ID NO: 10) at ¼ of its MIC) | MIC, ⅓ + MIC OAK (MRSA 15903; MRSA 15903, with C12K(KNC10K)3NH2 (SEQ ID NO: 10) at ⅓ of its MIC) | MIC (MRSA 15903; S. aureus CI-15903, alone)
256 to 512 mg/L: Antibiotic MIC (S. maltophila 748; [11])
4 mg/L: Antibiotic MIC in presence of C12K(NC8K)7NH2 (SEQ ID NO: 4), +½ MIC [1, 4] | Antibiotic MIC in presence of the OAK, +½ MIC [1, 7] | MIC (MRSA 15903; S. aureus CI-15903, +polymer (⅓ MIC) C12(5-ene)KKNC12KNH2) | Antibiotic MIC (S. aureus 15819; [9]) | Antibiotic MIC (S. aureus 15819; [13]) | Antibiotic MIC (S. aureus 15819; +⅓ MIC (2.1 μM) C12KKNC12KNH2) | Antibiotic MIC (S. aureus 43300; +¼ MIC (1.6 μM) C12KKNC12KNH2) | Antibiotic MIC (S. aureus 43300; +½ MIC (3.12 μM) C12K(KNC12K)2NH2)
